{
  "source": "patent US20250268903A1",
  "about": "“RXFP1 AGONISTS” (BRISTOL-MYERS SQUIBB COMPANY, priority 2021, published 2025)",
  "target": "T1, human RXFP1 (Homo sapiens, UniProt Q9HBX9)",
  "T1 construct": "expressed in transfected cells",
  "T1 sequence (Q9HBX9 1-757)": "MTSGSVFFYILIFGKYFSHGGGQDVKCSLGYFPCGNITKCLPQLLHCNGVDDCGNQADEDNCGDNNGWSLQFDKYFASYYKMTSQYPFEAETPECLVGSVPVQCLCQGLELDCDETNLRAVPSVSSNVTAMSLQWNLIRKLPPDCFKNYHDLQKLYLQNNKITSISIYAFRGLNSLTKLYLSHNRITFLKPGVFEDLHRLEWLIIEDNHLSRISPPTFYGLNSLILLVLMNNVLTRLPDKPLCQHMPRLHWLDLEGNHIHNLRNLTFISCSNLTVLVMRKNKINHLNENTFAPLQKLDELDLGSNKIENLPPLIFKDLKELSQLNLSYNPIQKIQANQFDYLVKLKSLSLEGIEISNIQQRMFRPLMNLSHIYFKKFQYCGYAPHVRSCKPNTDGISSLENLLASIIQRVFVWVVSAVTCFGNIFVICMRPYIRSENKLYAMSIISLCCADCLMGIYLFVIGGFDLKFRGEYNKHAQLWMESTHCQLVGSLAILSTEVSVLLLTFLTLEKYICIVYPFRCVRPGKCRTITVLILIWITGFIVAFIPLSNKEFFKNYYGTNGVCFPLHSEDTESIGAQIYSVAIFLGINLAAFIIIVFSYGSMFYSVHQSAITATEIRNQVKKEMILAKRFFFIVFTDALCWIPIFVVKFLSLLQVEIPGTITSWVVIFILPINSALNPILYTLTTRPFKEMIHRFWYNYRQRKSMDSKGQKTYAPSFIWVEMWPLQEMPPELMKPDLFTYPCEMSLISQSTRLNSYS",
  "test": "hRXFP1 HEK293 cAMP assay (HTRF)",
  "assay_type": "cell-based",
  "details": "HEK293 cells stably expressing human RXFP1, 30 min at room temperature",
  "method_in_brief": "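Potency and activity come from a four-parameter logistic fit of cAMP against compound concentration, tested from 0.010 nM up to 50 μM. The assay uses HEK293 cells stably expressing human RXFP1, incubated 30 min at ambient temperature with phosphodiesterase inhibitor IBMX present.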",
  "data": [
    {"smiles": "COc1ccc(/C=C/C(=O)N2CCCC2)cc1C(=O)N[C@H]1[C@@H](C(=O)Nc2ccc(F)c(C(F)(F)F)c2)[C@H]2CC[C@@H]1/C2=C\\C(F)(F)F", "note": "[Example 303, (1R,2S,3R,4R,7Z)-N-[4-fluoro-3-(trifluoromethyl)phenyl]-3-{2-methoxy-5-[(1E)-3-oxo-3-(pyrrolidin-1-yl)prop-1-en-1-yl]benzamido}-7-(2,2,2-trifluoroethylidene) bicyclo[2.2.1] heptane-2-carboxamide]", "values": [
      {"measurement": "EC50", "result": 77.9, "unit": "nM"}
    ]},
    {"smiles": "COc1ccc(S(=O)(=O)Nc2nnn[nH]2)cc1C(=O)NC1C2CCC(/C2=C/C(F)(F)F)[C@@H]1C(=O)Nc1ccc(F)c(C(F)(F)F)c1", "note": "(stereo partly drawn) [Example 206, (2S,3R,7Z)-N-[4-fluoro-3-(trifluoromethyl)phe-nyl]-3-{2-methoxy-5-[(1H-1,2,3,4-tetrazol-5-yl)sulfamoyl]benza-mido}-7-(2,2,2-trifluoroethylidene)bi-cyclo[2.2.1]heptane-2-carboxamide]", "values": [
      {"measurement": "EC50", "result": 3050, "unit": "nM"}
    ]},
    {"smiles": "COc1ccc(S(=O)(=O)N2CCNCC2CCO)cc1C(=O)N[C@H]1[C@@H](C(=O)Nc2ccc(F)c(C(F)(F)F)c2)[C@H]2CC[C@@H]1/C2=C\\C(F)(F)F", "note": "(stereo partly drawn) [Example 216, (1R,2S,3R,4R,7Z)-N-[4-fluoro-3-(trifluoromethyl)phenyl]-3-(5-{[2-(2-hydroxyethyl)piperazin-1-yl]sulfonyl}-2-methoxybenzamido)-7-(2,2,2-trifluoroethylidene) bicyclo[2.2.1]heptane-2-carboxamide]", "values": [
      {"measurement": "EC50", "result": 281, "unit": "nM"}
    ]},
    {"smiles": "COc1ccc(S(=O)(=O)N2CCOC[C@@H]2CO)cc1C(=O)N[C@H]1[C@@H](C(=O)Nc2ccc(F)c(C(F)(F)F)c2)[C@H]2CC[C@@H]1/C2=C\\C(F)(F)F", "note": "[Example 213, (1R,2S,3R,4R,7Z)-N-[4-fluoro-3-(trifluoromethyl)phenyl]-3-(5-{[(3S)-3-(hydroxymethyl)morpholin-4-yl]sulfonyl}-2-methoxybenzamido)-7-(2,2,2-trifluoroethylidene) bicyclo[2.2.1] heptane-2-carboxamide]", "values": [
      {"measurement": "EC50", "result": 331, "unit": "nM"}
    ]},
    {"smiles": "COc1ccc(C2CC3CC(CO)CC32)cc1C(=O)N[C@H]1[C@@H](C(=O)Nc2ccc(F)c(C(F)(F)F)c2)[C@H]2CC[C@@H]1/C2=C\\C1CC1", "note": "(single isomer, unassigned) [Example 352]", "values": [
      {"measurement": "EC50", "result": 49.9, "unit": "nM"}
    ]},
    {"smiles": "COc1ccc(CCCO)cc1C(=O)N[C@@H]1C2CCC(/C2=C/C2CC2)[C@@H]1C(=O)Nc1ccc(F)c(C(F)(F)F)c1", "note": "(stereo partly drawn) [Example 91, (2S,3R,7Z)-7-(cyclopropylmethyli-dene)-N-[4-fluoro-3-(trifluoromethyl)phe-nyl]-3-[5-(3-hydroxypropyl)-2-methoxybenzamido] bicyclo[2.2.1]heptane-2-carboxamide]", "values": [
      {"measurement": "EC50", "result": 70, "unit": "nM"}
    ]},
    {"smiles": "COc1ccc(C#CCCCCO)cc1C(=O)N[C@@H]1C2CCC(/C2=C/C(F)(F)F)[C@@H]1C(=O)Nc1ccc(F)c(C(F)(F)F)c1", "note": "(stereo partly drawn) [Example 78, (2S,4R,7Z)-N-[4-fluoro-3-(trifluoromethyl)phe-nyl]-3-[5-(6-hydroxyhex-1-yn-1-yl)-2-methoxybenzamido]-7-(2,2,2-trifluoroethylidene)bi-cyclo[2.2.1]heptane-2-carboxamide]", "values": [
      {"measurement": "EC50", "result": 229, "unit": "nM"}
    ]},
    {"smiles": "COc1cc(C#CCO)ccc1C(=O)N[C@@H]1C2CCC(/C2=C/C(F)(F)F)[C@@H]1C(=O)Nc1ccc(F)c(C(F)(F)F)c1", "note": "(stereo partly drawn) [Example 74, (2S,3R,7Z)-N-[4-fluoro-3-(trifluoromethyl)phe-nyl]-3-[4-(3-hydroxyprop-1-yn-1-yl)-2-methoxybenzamido]-7-(2,2,2-trifluoroethylidene)bi-cyclo[2.2.1]heptane-2-carboxamide]", "values": [
      {"measurement": "EC50", "result": 3550, "unit": "nM"}
    ]},
    {"smiles": "COc1ccc(CCCC(F)F)cc1C(=O)NC1C2CCC(/C2=C/C2CCC2)[C@@H]1C(=O)Nc1ccc(F)c(C(F)(F)F)c1", "note": "(some centres unmarked) [Example 196, (7Z)-7-(cyclobutylmethyl-idene)-3-[5-(4,4-difluorobutyl)-2-methoxybenzamido]-N-[4-fluoro-3-(trifluoromethyl)phe-nyl]bicyclo[2.2.1] heptane-2-carboxamide]", "values": [
      {"measurement": "EC50", "result": 32, "unit": "nM"}
    ]},
    {"smiles": "COc1ccc(CCCNC(=O)[C@@H](C)O)cc1C(=O)N[C@H]1[C@@H](C(=O)Nc2ccc(F)c(C(F)(F)F)c2)[C@H]2CC[C@@H]1/C2=C\\C(F)(F)F", "note": "[Example 111, (1R,2S,3R,4R,Z)—N-(4-fluoro-3-(trifluoromethyl)phenyl)-3-(5-(3-((R)-2-hydroxypropanamido)propyl)-2-methoxybenzamido)-7-(2,2,2-trifluoroethylidene) bicyclo[2.2.1]heptane-2-carboxamide]", "values": [
      {"measurement": "EC50", "result": 106, "unit": "nM"}
    ]},
    {"smiles": "COc1ccc(COCCC(=O)O)cc1C(=O)N[C@@H]1C2CCC(/C2=C/c2ccccc2)[C@@H]1C(=O)Nc1ccc(F)c(C(F)(F)F)c1", "note": "(stereo partly drawn) [Example 28, 3-[(3-{[(2R,3S,7Z)-3-{[4-fluoro-3-(trifluoromethyl)phe-nyl]carbamoyl}-7-(phenylmethylidene)bicyclo[2.2.1]heptan-2-yl]carbamoyl}-4-methoxyphenyl)meth-oxy]propanoic acid]", "values": [
      {"measurement": "EC50", "result": 56, "unit": "nM"}
    ]},
    {"smiles": "COc1ccc(C(=O)OC(C)(C)C)cc1C(=O)N[C@H]1[C@@H](C(=O)Nc2ccc(F)c(C(F)(F)F)c2)[C@H]2CC[C@@H]1/C2=C\\C1CC1", "note": "[Example 227]", "values": [
      {"measurement": "EC50", "result": 77.2, "unit": "nM"}
    ]},
    {"smiles": "COc1ccc(CCc2ccc(F)cc2)cc1C(=O)NC1C2CCC(/C2=C/C(F)(F)F)[C@@H]1C(=O)Nc1ccc(F)c(C(F)(F)F)c1", "note": "(some centres unmarked) [Example 179, (7Z)-N-[4-fluoro-3-(trifluoromethyl)phe-nyl]-3-{5-[2-(4-fluorophenyl)ethyl]-2-methoxybenzamido}-7-(2,2,2-trifluoroethylidene)bi-cyclo[2.2.1]heptane-2-carboxamide]", "values": [
      {"measurement": "EC50", "result": 267, "unit": "nM"}
    ]},
    {"smiles": "COc1ccc(C#C[C@H](C)O)cc1C(=O)N[C@@H]1C2CCC(/C2=C/C(F)(F)F)[C@@H]1C(=O)Nc1ccc(F)c(C(F)(F)F)c1", "note": "(stereo partly drawn) [Example 71, (2S,3R,7Z)-N-[4-fluoro-3-(trifluoromethyl)phe-nyl]-3-{5-[(3S)-3-hydroxybut-1-yn-1-yl]-2-methoxybenzamido}-7-(2,2,2-trifluoroethylidene)bi-cyclo[2.2.1]heptane-2-carboxamide]", "values": [
      {"measurement": "EC50", "result": 118, "unit": "nM"}
    ]},
    {"smiles": "COc1c(F)cc(C(=O)NCC2(S(C)(=O)=O)CC2)cc1C(=O)N[C@H]1[C@@H](C(=O)N[C@H](C)C2(C)CC2)[C@H]2CC[C@@H]1/C2=C\\c1cnc(C(F)(F)F)s1", "note": "[Example 373, 5-fluoro-N1-[(1-methanesulfonyl-cyclopropyl)methyl]-4-methoxy-N3-[(1R,2R,3S,4R,7Z)-3-{[(1R)-1-(1-methylcyclopropyl)ethyl]carbamoyl}-7-{[2-(trifluoromethyl)-1,3-thiazol-5-yl]methylidene}bicyclo[2.2.1]heptan-2-yl]benzene-1,3-dicarboxamide]", "values": [
      {"measurement": "EC50", "result": 3.6, "unit": "nM"}
    ]},
    {"smiles": "COc1ccc(/C=C/C(=O)N2CC[C@@H](O)C2)cc1C(=O)N[C@@H]1C2CCC(/C2=C/C(F)(F)F)[C@@H]1C(=O)Nc1ccc(F)c(C(F)(F)F)c1", "note": "(stereo partly drawn) [Example 129, (2S,3R,7Z)-N-[4-fluoro-3-(trifluoromethyl)phe-nyl]-3-{5-[(1E)-3-[(3R)-3-hydroxypyrrolidin-1-yl]-3-oxoprop-1-en-1-yl]-2-methoxybenzamido}-7-(2,2,2-trifluoroethylidene)bi-cyclo[2.2.1]heptane-2-carboxamide]", "values": [
      {"measurement": "EC50", "result": 111, "unit": "nM"}
    ]},
    {"smiles": "COc1ccc(/C=C/C(=O)N[C@H]2C[C@@H](O)C2)cc1C(=O)N[C@@H]1C2CCC(/C2=C/C(F)(F)F)[C@@H]1C(=O)Nc1ccc(F)c(C(F)(F)F)c1", "note": "(stereo partly drawn) [Example 134, (2S,3R,7Z)-N-[4-fluoro-3-(trifluoromethyl)phe-nyl]-3-{2-methoxy-5-[(1E)-2-{[(1s,3s)-3-hydroxycyclobutyl]car-bamoyl}eth-1-en-1-yl]benzamido}-7-(2,2,2-trifluoroethylidene)bi-cyclo[2.2.1]heptane-2-carboxamide]", "values": [
      {"measurement": "EC50", "result": 561, "unit": "nM"}
    ]},
    {"smiles": "COc1ccc(CCCNC(=O)C(C)(C)O)cc1C(=O)N[C@@H]1C2CCC(/C2=C/C(F)(F)F)[C@@H]1C(=O)Nc1ccc(F)c(C(F)(F)F)c1", "note": "(stereo partly drawn) [Example 113, (2S,3R,7Z)-N-[4-fluoro-3-(trifluoromethyl)phe-nyl]-3-{5-[3-(2-hydroxy-2-methylpropanamido)propyl]-2-methoxybenzamido}-7-(2,2,2-trifluoroethylidene)bi-cyclo[2.2.1]heptane-2-carboxamide]", "values": [
      {"measurement": "EC50", "result": 341, "unit": "nM"}
    ]},
    {"smiles": "COc1ccc(C(=O)N2CCCC(CO)C2)cc1C(=O)N[C@H]1[C@@H](C(=O)Nc2ccc(F)c(C(F)(F)F)c2)[C@H]2CC[C@@H]1/C2=C\\C1CC1", "note": "(stereo partly drawn) [Example 233, (1R,2S,3R,4R,7Z)-7-(cyclopropyl-methylidene)-N-[4-fluoro-3-(trifluoromethyl)phenyl]-3-[5-[3-(hydroxymethyl)piperidine-1-carbonyl]-2-methoxybenzamido} bicyclo[2.2.1] heptane-2-carboxamide]", "values": [
      {"measurement": "EC50", "result": 65.7, "unit": "nM"}
    ]},
    {"smiles": "COc1ccc(/C=C(/C)C(=O)N2CCC(O)CC2)cc1C(=O)N[C@H]1[C@@H](C(=O)Nc2ccc(F)c(C(F)(F)F)c2)[C@H]2CC[C@@H]1/C2=C\\C(F)(F)F", "note": "[Example 319]", "values": [
      {"measurement": "EC50", "result": 1120, "unit": "nM"}
    ]}
  ]
}
